Patent publication US8383618B2, “C2-fluoro substituted piperazine linked pyrrolo[2,1-C][1,4] benzodiazepine dimers and a process for the preparation thereof” (Council of Scientific & Industrial Research, priority 2008, dated 2013)
Read-outs that look alike come from different tables or passages of the source.

Legend:
calf thymus (CT) DNA [1] = assay: Thermal denaturation studies; type: binding; conditions: [PBD]:[DNA] molar ratio 1:5; CT-DNA 100 μM, ligand 20 μM; sodium phosphate buffer pH 7.00
Protocol: The DNA binding affinity of the C2-Fluoro substituted piperazine linked pyrrolo[2,1c][1,4]benzodiazepine dimers were subjected to thermal denaturation studies using calf thymus (CT) DNA (Jones, G. B.; Davey, C. L.; Jenkins, T. C.; Kamal, A.; Kneale, G. G.; Neidle, S.; Webster, G. D.; Thurston, D. E. Anti-cancer Drug Des. 1990, 5, 249. McConnaughie, A. W.; Jenkins, T. C. J. Med. Chem. 1995, 38, 3488). The studies for these compounds (IXa-f) were carried out by DNA/ligand molar ratio is 1:5 the increase in the helix melting temperature (ΔTm) for each compound was examined at 0 h. […] Data for DSB-120 and SJG-136 are included in Table-3 for comparison. The synthetic DC-81 dimer (DSB-120) gives a ΔTm 10.2° C. and SJC-136 gives a […]Tm of 25° C. under identical experimental condition.

[2] = test system: sixty human tumor cells derived from nine cancer types; assay: NCI in vitro anticancer screen (SRB), whole panel; type: cell-based; conditions: human tumor cell lines; 48 h drug exposure, SRB
Protocol: (§1) The above compounds were evaluated for in vitro anticancer activity against sixty human tumor cells derived from nine cancer types (leukemia, non small cell cancer, colon cancer CNS cancer, melanoma, ovarian cancer renal cancer, prostate cancer and breast cancer) as per NCI protocol. For each compound, dose response curves for each cell line were measured at a minimum of five concentrations at 10-fold dilution. A protocol of 48 h continuous drug exposure was used, and a sulforhodamine B (SRB) protein assay was used to estimate cell viability or growth. The concentration causing 50% cell growth inhibition (GI50), total cell growth inhibition (TGI, 0% growth) and 50% cell death (LC-50% growth) compared with the control was calculated.

K-562 = assay: NCI in vitro anticancer screen (SRB); type: cell-based, human; conditions: Leukemia, 48 h exposure
Protocol: as §1

ACHN = assay: NCI in vitro anticancer screen (SRB); type: cell-based, human; conditions: Renal, 48 h exposure
Protocol: as §1

OVCAR-8 = assay: NCI in vitro anticancer screen (SRB); type: cell-based, human; conditions: Ovarian, 48 h exposure
Protocol: as §1

HOP-62 = assay: NCI in vitro anticancer screen (SRB); type: cell-based, human; conditions: Non-small cell lung, 48 h exposure
Protocol: as §1

MDA-MB-435 = assay: NCI in vitro anticancer screen (SRB); type: cell-based, human; conditions: Breast, 48 h exposure
Protocol: as §1

SNB-75 = assay: NCI in vitro anticancer screen (SRB); type: cell-based, human; conditions: CNS, 48 h exposure
Protocol: as §1

IGROV1 = assay: NCI in vitro anticancer screen (SRB); type: cell-based, human; conditions: Ovarian, 48 h exposure
Protocol: as §1

SF-539 = assay: NCI in vitro anticancer screen (SRB); type: cell-based, human; conditions: CNS, 48 h exposure
Protocol: as §1

LOX IMVI = assay: NCI in vitro anticancer screen (SRB); type: cell-based, human; conditions: Melanoma, 48 h exposure
Protocol: as §1

SNB-19 = assay: NCI in vitro anticancer screen (SRB); type: cell-based, human; conditions: CNS, 48 h exposure
Protocol: as §1

HT29 = assay: NCI in vitro anticancer screen (SRB); type: cell-based, human; conditions: Colon, 48 h exposure
Protocol: as §1

U251 = assay: NCI in vitro anticancer screen (SRB); type: cell-based, human; conditions: CNS, 48 h exposure
Protocol: as §1

MALME-3M = assay: NCI in vitro anticancer screen (SRB); type: cell-based, human; conditions: Melanoma, 48 h exposure
Protocol: as §1

DU-145 = assay: NCI in vitro anticancer screen (SRB); type: cell-based, human; conditions: Prostate, 48 h exposure
Protocol: as §1

COLO 205 = assay: NCI in vitro anticancer screen (SRB); type: cell-based, human; conditions: Colon, 48 h exposure
Protocol: as §1

A498 = assay: NCI in vitro anticancer screen (SRB); type: cell-based, human; conditions: Renal, 48 h exposure
Protocol: as §1

KM12 = assay: NCI in vitro anticancer screen (SRB); type: cell-based, human; conditions: Colon, 48 h exposure
Protocol: as §1

M14 = assay: NCI in vitro anticancer screen (SRB); type: cell-based, human; conditions: Melanoma, 48 h exposure
Protocol: as §1

HOP-92 = assay: NCI in vitro anticancer screen (SRB); type: cell-based, human; conditions: Non-small cell lung, 48 h exposure
Protocol: as §1

NCI-H522 = assay: NCI in vitro anticancer screen (SRB); type: cell-based, human; conditions: Non-small cell lung, 48 h exposure
Protocol: as §1

SR = assay: NCI in vitro anticancer screen (SRB); type: cell-based, human; conditions: Leukemia, 48 h exposure
Protocol: as §1

HCT-116 = assay: NCI in vitro anticancer screen (SRB); type: cell-based, human; conditions: Colon, 48 h exposure
Protocol: as §1

PC-3 = assay: NCI in vitro anticancer screen (SRB); type: cell-based, human; conditions: Prostate, 48 h exposure
Protocol: as §1

SF-268 = assay: NCI in vitro anticancer screen (SRB); type: cell-based, human; conditions: CNS, 48 h exposure
Protocol: as §1

SK-MEL-5 = assay: NCI in vitro anticancer screen (SRB); type: cell-based, human; conditions: Melanoma, 48 h exposure
Protocol: as §1

SN12C = assay: NCI in vitro anticancer screen (SRB); type: cell-based, human; conditions: Renal, 48 h exposure
Protocol: as §1

NCI-H322M = assay: NCI in vitro anticancer screen (SRB); type: cell-based, human; conditions: Non-small cell lung, 48 h exposure
Protocol: as §1

RPMI-8226 = assay: NCI in vitro anticancer screen (SRB); type: cell-based, human; conditions: Leukemia, 48 h exposure
Protocol: as §1

MOLT-4 = assay: NCI in vitro anticancer screen (SRB); type: cell-based, human; conditions: Leukemia, 48 h exposure
Protocol: as §1

T-47D = assay: NCI in vitro anticancer screen (SRB); type: cell-based, human; conditions: Breast, 48 h exposure
Protocol: as §1

CCRF-CEM = assay: NCI in vitro anticancer screen (SRB); type: cell-based, human; conditions: Leukemia, 48 h exposure
Protocol: as §1

MCF7 = assay: NCI in vitro anticancer screen (SRB); type: cell-based, human; conditions: Breast, 48 h exposure
Protocol: as §1

HS 578T = assay: NCI in vitro anticancer screen (SRB); type: cell-based, human; conditions: Breast, 48 h exposure
Protocol: as §1

TK-10 = assay: NCI in vitro anticancer screen (SRB); type: cell-based, human; conditions: Renal, 48 h exposure
Protocol: as §1

SW-620 = assay: NCI in vitro anticancer screen (SRB); type: cell-based, human; conditions: Colon, 48 h exposure
Protocol: as §1

HL-60(TB) = assay: NCI in vitro anticancer screen (SRB); type: cell-based, human; conditions: Leukemia, 48 h exposure
Protocol: as §1

HCC-2998 = assay: NCI in vitro anticancer screen (SRB); type: cell-based, human; conditions: Colon, 48 h exposure
Protocol: as §1

SK-MEL-28 = assay: NCI in vitro anticancer screen (SRB); type: cell-based, human; conditions: Melanoma, 48 h exposure
Protocol: as §1

SK-OV-3 = assay: NCI in vitro anticancer screen (SRB); type: cell-based, human; conditions: Ovarian, 48 h exposure
Protocol: as §1

RXF 393 = assay: NCI in vitro anticancer screen (SRB); type: cell-based, human; conditions: Renal, 48 h exposure
Protocol: as §1

NCI-H460 = assay: NCI in vitro anticancer screen (SRB); type: cell-based, human; conditions: Non-small cell lung, 48 h exposure
Protocol: as §1

BT-549 = assay: NCI in vitro anticancer screen (SRB); type: cell-based, human; conditions: Breast, 48 h exposure
Protocol: as §1

UACC-62 = assay: NCI in vitro anticancer screen (SRB); type: cell-based, human; conditions: Melanoma, 48 h exposure
Protocol: as §1

OVCAR-5 = assay: NCI in vitro anticancer screen (SRB); type: cell-based, human; conditions: Ovarian, 48 h exposure
Protocol: as §1

CAKI-1 = assay: NCI in vitro anticancer screen (SRB); type: cell-based, human; conditions: Renal, 48 h exposure
Protocol: as §1

A549/ATCC = assay: NCI in vitro anticancer screen (SRB); type: cell-based, human; conditions: Non-small cell lung, 48 h exposure
Protocol: as §1

OVCAR-3 = assay: NCI in vitro anticancer screen (SRB); type: cell-based, human; conditions: Ovarian, 48 h exposure
Protocol: as §1

786-0 = assay: NCI in vitro anticancer screen (SRB); type: cell-based, human; conditions: Renal, 48 h exposure
Protocol: as §1

calf thymus (CT) DNA [3] = conditions: [PBD]:[DNA] molar ratio 1:5; literature value; listed as SJC-136; cited from earlier work

COc1cc2c(cc1OCCCN1CCN(CCCOc3cc4c(cc3OC)C(=O)N3CC(F)(F)C[C@H]3C=N4)CC1)N=C[C@@H]1CC(F)(F)CN1C2=O [IXd, 1,1′-{[(bispropane-1,N-diyl)piperazine]dioxy}bis[(11aS)-2-2-difluoro-7-methoxy-1,2,3,11a-tetrahydro-5H-pyrrolo[2,1-c][1,4]benzodiazepine-5-one]]
ΔTm after incubation at 37° C. for 0 h (calf thymus (CT) DNA [1]): 11.0 °C
Log10 GI50 mean graph midpoint (MG_MID) [2]: −5.41
Log10 LC50 mean graph midpoint (MG_MID) [2]: −4.2
Log10 TGI mean graph midpoint (MG_MID) [2]: −4.79
GI50 (K-562): 1.7 µM
GI50 (ACHN): 5.64 µM
GI50 (OVCAR-8): 6.3 µM
GI50 (HOP-62): 3.17 µM
GI50 (MDA-MB-435): 1.95 µM
GI50 (SNB-75): 5.52 µM
GI50 (IGROV1): 1.92 µM
GI50 (SF-539): 3 µM
GI50 (LOX IMVI): 1.89 µM
GI50 (SNB-19): 4.08 µM
GI50 (HT29): 3.61 µM
GI50 (U251): 3.36 µM
GI50 (MALME-3M): 2.8 µM
GI50 (DU-145): 3.63 µM
GI50 (COLO 205): 3.09 µM
GI50 (A498): 2.43 µM
GI50 (KM12): 4.1 µM
GI50 (M14): 3.25 µM
GI50 (HOP-92): 6.14 µM
GI50 (NCI-H522): 1.14 µM
GI50 (SR): 0.8 µM
GI50 (HCT-116): 3.59 µM
GI50 (PC-3): 3.06 µM
GI50 (SF-268): 3.57 µM
GI50 (SK-MEL-5): 1.86 µM
GI50 (SN12C): 4.05 µM
GI50 (NCI-H322M): 1.96 µM
GI50 (RPMI-8226): 2.2 µM
GI50 (MOLT-4): 2.02 µM
GI50 (T-47D): 1.38 µM
GI50 (CCRF-CEM): 0.9 µM
GI50 (MCF7): 2.09 µM
GI50 (HS 578T): 2.94 µM
GI50 (TK-10): 4.38 µM
GI50 (SW-620): 2.61 µM
GI50 (HL-60(TB)): 1.18 µM
GI50 (HCC-2998): 5.4 µM
GI50 (SK-MEL-28): 4.28 µM
GI50 (SK-OV-3): 8.64 µM
GI50 (RXF 393): 2.14 µM
GI50 (NCI-H460): 2.6 µM
GI50 (BT-549): 3.25 µM
GI50 (UACC-62): 3.05 µM
GI50 (OVCAR-5): 3.83 µM
GI50 (CAKI-1): 3.31 µM
GI50 (A549/ATCC): 7.3 µM
GI50 (OVCAR-3): 3.55 µM
GI50 (786-0): 3.17 µM

COc1cc2c(cc1OCCCCN1CCN(CCCCOc3cc4c(cc3OC)C(=O)N3CC(F)(F)C[C@H]3C=N4)CC1)N=C[C@@H]1CC(F)(F)CN1C2=O [IXe, 1,1′-{[(bisbutane-1,N-diyl)piperazine]dioxy}bis[(11aS)-2-2-difluoro-7-methoxy-1,2,3,11a-tetrahydro-5H-pyrrolo[2,1-c][1,4]benzodiazepine-5-one]]
ΔTm after incubation at 37° C. for 0 h (calf thymus (CT) DNA [1]): 14.0 °C

COc1cc2c(cc1OCCCCCN1CCN(CCCCCOc3cc4c(cc3OC)C(=O)N3CC(F)(F)C[C@H]3C=N4)CC1)N=C[C@@H]1CC(F)(F)CN1C2=O [IXf, 1,1′-{[(bispentane-1,N-diyl)piperazine]dioxy}bis[(11aS)-2-2-difluoro-7-methoxy-1,2,3,11a-tetrahydro-5H-pyrrolo[2,1-c][1,4]benzodiazepine-5-one]]
ΔTm after incubation at 37° C. for 0 h (calf thymus (CT) DNA [1]): 13.0 °C

C=C1C[C@H]2C=Nc3cc(OCCCOc4cc5c(cc4OC)C(=O)N4CC(=C)C[C@H]4C=N5)c(OC)cc3C(=O)N2C1 [SJG-136]
ΔTm after incubation at 37° C. for 0 h (calf thymus (CT) DNA [3]): 25 °C
